From ChEMBL document CHEMBL1145615, “A refined pharmacophore model for HIV-1 integrase inhibitors: Optimization of potency in the 1H-benzylindole series” (Bioorg Med Chem Lett, 2008)

Target: T1, Human immunodeficiency virus type 1 integrase (Human immunodeficiency virus 1, UniProt Q7ZJM1)
Details: not given

T1 sequence (Q7ZJM1 whole entry): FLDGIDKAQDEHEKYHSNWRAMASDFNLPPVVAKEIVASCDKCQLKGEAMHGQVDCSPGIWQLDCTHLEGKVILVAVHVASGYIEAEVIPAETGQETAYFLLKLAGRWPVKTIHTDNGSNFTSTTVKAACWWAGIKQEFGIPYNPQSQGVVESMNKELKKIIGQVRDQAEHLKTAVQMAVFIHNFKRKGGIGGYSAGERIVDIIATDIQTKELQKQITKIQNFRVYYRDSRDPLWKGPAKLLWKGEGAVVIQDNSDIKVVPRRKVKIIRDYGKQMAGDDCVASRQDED

Question: Which IC50 does the source give for `COc1cccc2c1c(C(=O)/C=C(\O)C(=O)O)cn2Cc1ccc(F)cc1` here?
Answer: 0.14 µM

Question: With `O=C(O)/C(O)=C/C(=O)c1cn(Cc2ccc(F)cc2)c2ccccc12` as the compound, how does the IC50 read?
Answer: 2.33 µM

Question: With `COc1ccc(OC)c2c1c(C(=O)/C=C(\O)C(=O)O)cn2Cc1ccc(F)cc1` as the compound, how does the IC50 read?
Answer: 0.03 µM

Question: Which IC50 does the source give for `CCOC(=O)/C(O)=C/C(=O)c1cn(Cc2ccc(F)cc2)c2c(OC)ccc(OC)c12` here?
Answer: 0.66 µM

Question: With `CCOC(=O)/C(O)=C/C(=O)c1cn(Cc2ccc(F)cc2)c2cc(OC)ccc12` as the compound, how does the IC50 read?
Answer: 2.34 µM

Question: For `COc1ccc2c(C(=O)/C=C(\O)C(=O)O)cn(Cc3ccc(F)cc3)c2c1`, which IC50 is on record?
Answer: 0.22 µM

Question: Which IC50 does the source give for `COc1cccc2c(C(=O)/C=C(\O)C(=O)O)cn(Cc3ccc(F)cc3)c12` here?
Answer: 0.19 µM

Question: For `CCOC(=O)/C(O)=C/C(=O)c1cn(Cc2ccc(F)cc2)c2cccc(OC)c12`, which IC50 is on record?
Answer: 92.3 µM

Question: For `CCOC(=O)/C(O)=C/C(=O)c1cn(Cc2ccc(F)cc2)c2c(OC)cccc12`, which IC50 is on record?
Answer: 2.64 µM

Question: Which IC50 does the source give for `CCOC(=O)/C(O)=C/C(=O)c1cn(Cc2ccc(F)cc2)c2ccc(OC)cc12` here?
Answer: 7.55 µM

Question: For `COc1ccc2c(c1)c(C(=O)/C=C(\O)C(=O)O)cn2Cc1ccc(F)cc1`, which IC50 is on record?
Answer: 0.27 µM

System: not listed separately
Assay: Cytotoxicity against human MT4 cells
Format: cell-based
Details: not given

Question: Which CC50 does the source give for `COc1cc2c(cc1Cc1cccc(Cl)c1F)c(=O)c(C(=O)O)cn2[C@H](CO)C(C)C` here?
Answer: 2.12 µM

Question: Which CC50 does the source give for `Cc1nnc(C(=O)NC(C)(C)c2nc(C(=O)NCc3ccc(F)cc3)c(O)c(=O)n2C)o1` here?
Answer: > 18 µM

Question: Which CC50 does the source give for `COc1cccc2c1c(C(=O)/C=C(\O)C(=O)O)cn2Cc1ccc(F)cc1` here?
Answer: 41.1 µM

Question: Which CC50 does the source give for `O=C(O)/C(O)=C/C(=O)c1cn(Cc2ccc(F)cc2)c2ccccc12` here?
Answer: 64.1 µM

Question: For `COc1ccc(OC)c2c1c(C(=O)/C=C(\O)C(=O)O)cn2Cc1ccc(F)cc1`, which CC50 is on record?
Answer: 213 µM

Question: For `CCOC(=O)/C(O)=C/C(=O)c1cn(Cc2ccc(F)cc2)c2c(OC)ccc(OC)c12`, which CC50 is on record?
Answer: 81.1 µM

Question: With `CCOC(=O)/C(O)=C/C(=O)c1cn(Cc2ccc(F)cc2)c2cc(OC)ccc12` as the compound, how does the CC50 read?
Answer: 100 µM

Question: For `COc1ccc2c(C(=O)/C=C(\O)C(=O)O)cn(Cc3ccc(F)cc3)c2c1`, which CC50 is on record?
Answer: 66 µM

Question: With `COc1cccc2c(C(=O)/C=C(\O)C(=O)O)cn(Cc3ccc(F)cc3)c12` as the compound, how does the CC50 read?
Answer: 82.9 µM

Question: With `CCOC(=O)/C(O)=C/C(=O)c1cn(Cc2ccc(F)cc2)c2cccc(OC)c12` as the compound, how does the CC50 read?
Answer: 74 µM

Question: For `CCOC(=O)/C(O)=C/C(=O)c1cn(Cc2ccc(F)cc2)c2c(OC)cccc12`, which CC50 is on record?
Answer: > 100 µM

Question: For `CCOC(=O)/C(O)=C/C(=O)c1cn(Cc2ccc(F)cc2)c2ccc(OC)cc12`, which CC50 is on record?
Answer: 126 µM

Question: Which CC50 does the source give for `COc1ccc2c(c1)c(C(=O)/C=C(\O)C(=O)O)cn2Cc1ccc(F)cc1` here?
Answer: 63.6 µM

System: not listed separately
Assay: Selectivity index, ratio of CC50 for human MT4 cells to EC50 for HIV1 3B
Format: functional
Details: not given

Question: With `COc1cccc2c1c(C(=O)/C=C(\O)C(=O)O)cn2Cc1ccc(F)cc1` as the compound, how does the “Ratio CC50/EC50” value read?
Answer: 70

Question: For `O=C(O)/C(O)=C/C(=O)c1cn(Cc2ccc(F)cc2)c2ccccc12`, which “Ratio CC50/EC50” value is on record?
Answer: 8

Question: For `COc1ccc(OC)c2c1c(C(=O)/C=C(\O)C(=O)O)cn2Cc1ccc(F)cc1`, which “Ratio CC50/EC50” value is on record?
Answer: 100

Question: With `CCOC(=O)/C(O)=C/C(=O)c1cn(Cc2ccc(F)cc2)c2c(OC)ccc(OC)c12` as the compound, how does the “Ratio CC50/EC50” value read?
Answer: 20

Question: For `CCOC(=O)/C(O)=C/C(=O)c1cn(Cc2ccc(F)cc2)c2cc(OC)ccc12`, which “Ratio CC50/EC50” value is on record?
Answer: <1

Question: For `COc1ccc2c(C(=O)/C=C(\O)C(=O)O)cn(Cc3ccc(F)cc3)c2c1`, which “Ratio CC50/EC50” value is on record?
Answer: 8

Question: With `COc1cccc2c(C(=O)/C=C(\O)C(=O)O)cn(Cc3ccc(F)cc3)c12` as the compound, how does the “Ratio CC50/EC50” value read?
Answer: 12

Question: For `CCOC(=O)/C(O)=C/C(=O)c1cn(Cc2ccc(F)cc2)c2cccc(OC)c12`, which “Ratio CC50/EC50” value is on record?
Answer: 24

Question: Which “Ratio CC50/EC50” value does the source give for `CCOC(=O)/C(O)=C/C(=O)c1cn(Cc2ccc(F)cc2)c2ccc(OC)cc12` here?
Answer: 11

Question: With `COc1ccc2c(c1)c(C(=O)/C=C(\O)C(=O)O)cn2Cc1ccc(F)cc1` as the compound, how does the “Ratio CC50/EC50” value read?
Answer: 12

System: Human immunodeficiency virus 1
Assay: Antiviral activity against HIV1 3B assessed as inhibition of viral-induced cytopathic effect in human MT4 cells
Format: functional, organism-based
Details: Human immunodeficiency virus 1, 3B

Question: Which EC50 does the source give for `COc1cc2c(cc1Cc1cccc(Cl)c1F)c(=O)c(C(=O)O)cn2[C@H](CO)C(C)C` here?
Answer: 0.0008 µM

Question: For `Cc1nnc(C(=O)NC(C)(C)c2nc(C(=O)NCc3ccc(F)cc3)c(O)c(=O)n2C)o1`, which EC50 is on record?
Answer: 0.013 µM

Question: Which EC50 does the source give for `O=C(O)/C(O)=C/C(=O)c1cn(Cc2ccc(F)cc2)c2ccccc12` here?
Answer: 8.35 µM

Question: For `COc1ccc(OC)c2c1c(C(=O)/C=C(\O)C(=O)O)cn2Cc1ccc(F)cc1`, which EC50 is on record?
Answer: 2.13 µM

Question: For `CCOC(=O)/C(O)=C/C(=O)c1cn(Cc2ccc(F)cc2)c2c(OC)ccc(OC)c12`, which EC50 is on record?
Answer: 4.09 µM

Question: For `CCOC(=O)/C(O)=C/C(=O)c1cn(Cc2ccc(F)cc2)c2cc(OC)ccc12`, which EC50 is on record?
Answer: > 100 µM

Question: For `COc1ccc2c(C(=O)/C=C(\O)C(=O)O)cn(Cc3ccc(F)cc3)c2c1`, which EC50 is on record?
Answer: 8.39 µM

Question: For `COc1cccc2c(C(=O)/C=C(\O)C(=O)O)cn(Cc3ccc(F)cc3)c12`, which EC50 is on record?
Answer: 7.04 µM

Question: With `CCOC(=O)/C(O)=C/C(=O)c1cn(Cc2ccc(F)cc2)c2cccc(OC)c12` as the compound, how does the EC50 read?
Answer: 3.17 µM

Question: For `CCOC(=O)/C(O)=C/C(=O)c1cn(Cc2ccc(F)cc2)c2c(OC)cccc12`, which EC50 is on record?
Answer: > 100 µM

Question: With `CCOC(=O)/C(O)=C/C(=O)c1cn(Cc2ccc(F)cc2)c2ccc(OC)cc12` as the compound, how does the EC50 read?
Answer: 11.5 µM

Question: For `COc1ccc2c(c1)c(C(=O)/C=C(\O)C(=O)O)cn2Cc1ccc(F)cc1`, which EC50 is on record?
Answer: 5.63 µM

Target: T1, Human immunodeficiency virus type 1 integrase
Details: not given
Remark: another data set of the same source

Question: For `COc1cccc2c1c(C(=O)/C=C(\O)C(=O)O)cn2Cc1ccc(F)cc1`, which IC50 is on record?
Answer: 0.08 µM

Question: Which IC50 does the source give for `O=C(O)/C(O)=C/C(=O)c1cn(Cc2ccc(F)cc2)c2ccccc12` here?
Answer: 0.86 µM

Question: For `COc1ccc(OC)c2c1c(C(=O)/C=C(\O)C(=O)O)cn2Cc1ccc(F)cc1`, which IC50 is on record?
Answer: 0.06 µM

Question: Which IC50 does the source give for `CCOC(=O)/C(O)=C/C(=O)c1cn(Cc2ccc(F)cc2)c2c(OC)ccc(OC)c12` here?
Answer: 1.24 µM

Question: Which IC50 does the source give for `CCOC(=O)/C(O)=C/C(=O)c1cn(Cc2ccc(F)cc2)c2cc(OC)ccc12` here?
Answer: 1.96 µM

Question: Which IC50 does the source give for `COc1ccc2c(C(=O)/C=C(\O)C(=O)O)cn(Cc3ccc(F)cc3)c2c1` here?
Answer: 0.19 µM

Question: Which IC50 does the source give for `COc1cccc2c(C(=O)/C=C(\O)C(=O)O)cn(Cc3ccc(F)cc3)c12` here?
Answer: 0.27 µM

Question: With `CCOC(=O)/C(O)=C/C(=O)c1cn(Cc2ccc(F)cc2)c2cccc(OC)c12` as the compound, how does the IC50 read?
Answer: 86.1 µM

Question: With `CCOC(=O)/C(O)=C/C(=O)c1cn(Cc2ccc(F)cc2)c2c(OC)cccc12` as the compound, how does the IC50 read?
Answer: 4.76 µM

Question: With `CCOC(=O)/C(O)=C/C(=O)c1cn(Cc2ccc(F)cc2)c2ccc(OC)cc12` as the compound, how does the IC50 read?
Answer: 4.6 µM

Question: For `COc1ccc2c(c1)c(C(=O)/C=C(\O)C(=O)O)cn2Cc1ccc(F)cc1`, which IC50 is on record?
Answer: 0.3 µM
